How the values were obtained:
Test in all cases: combination Emax (second highest fraction inhibited in the dose matrix, 72 h); higher = more inhibition; extreme values may be limits of the assay
A704 (Kidney Carcinoma) = system: A704 (Kidney Carcinoma)
Outline: (§1)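 Cell lines grown in DMEM/F12 or RPMI with 10% FBS were plated in 1536-well plates and held 24 hours at 37°C, 5% CO2 before 72 hours of exposure to two-drug dose matrices, with DMSO typically at 0.2%. CellTiter-Glo 2.0 luminescence gave viability, which was converted to inhibition. Vehicle wells were set to 0 and blank wells to 1. Combination Emax is the second-highest inhibition in the matrix, and Bliss excess is the observed combination effect minus the expected EA + EB − EA·EB, where EA and EB are the single-agent effects.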

BT-20 (Breast Carcinoma) = system: BT-20 (Breast Carcinoma)
Outline: as §1

[1] = system: EBC-1 (Squamous Cell Lung Carcinoma)
Outline: as §1

EW-13 (Ewing's Sarcoma) = system: EW-13 (Ewing's Sarcoma)
Outline: as §1

EW-18 (Ewing's Sarcoma) = system: EW-18 (Ewing's Sarcoma)
Outline: as §1

EW-3 (Ewing's Sarcoma) = system: EW-3 (Ewing's Sarcoma)
Outline: as §1

[2] = system: H-EMC-SS (Chondrosarcoma)
Outline: as §1

[3] = system: HC-1 (Other Blood Carcinomas)
Outline: as §1

[4] = system: HSC-2 (Oral Cavity Carcinoma)
Outline: as §1

[5] = system: HuP-T3 (Pancreatic Carcinoma)
Outline: as §1

IMR-5 (Neuroblastoma) = system: IMR-5 (Neuroblastoma)
Outline: as §1

[6] = system: KLE (Endometrial Carcinoma)
Outline: as §1

[7] = system: MFE-319 (Endometrial Carcinoma)
Outline: as §1

NB7 (Neuroblastoma) = system: NB7 (Neuroblastoma)
Outline: as §1

[8] = system: NCI-H1573 (Lung Adenocarcinoma)
Outline: as §1

[9] = system: NCI-N87 (Gastric Carcinoma)
Outline: as §1

RPMI-7951 (Melanoma) = system: RPMI-7951 (Melanoma)
Outline: as §1

[10] = system: SNU-C1 (Colorectal Carcinoma)
Outline: as §1

[11] = system: TGBC11TKB (Gastric Carcinoma)
Outline: as §1

U-87-MG (Glioblastoma) = system: U-87-MG (Glioblastoma)
Outline: as §1

SMILES	combination Emax (A704 (Kidney Carcinoma))	combination Emax (BT-20 (Breast Carcinoma))	combination Emax [1]	combination Emax (EW-13 (Ewing's Sarcoma))	combination Emax (EW-18 (Ewing's Sarcoma))	combination Emax (EW-3 (Ewing's Sarcoma))	combination Emax [2]	combination Emax [3]	combination Emax [4]	combination Emax [5]	combination Emax (IMR-5 (Neuroblastoma))	combination Emax [6]	combination Emax [7]	combination Emax (NB7 (Neuroblastoma))	combination Emax [8]	combination Emax [9]	combination Emax (RPMI-7951 (Melanoma))	combination Emax [10]	combination Emax [11]	combination Emax (U-87-MG (Glioblastoma))
Cc1c2c(nn1C)CSCc1cc(n(C)n1)CSc1cc(c3ccccc3c1)OCCCc1c(C(=O)O)n(C)c3c-2c(Cl)ccc13 [AZD5991] + Cn1cnc2c(F)c(Nc3ccc(Br)cc3Cl)c(C(=O)NOCCO)cc21 [Selumetinib] (first compound max 1 µM, 7x7, partner max 3 µM)	0.306	0.763	0.827	0.338	0.927	0.549	0.563	0.402	0.907	0.462	0.983	0.287	0.604	0.536	0.586	0.426	0.934	0.695	0.683	0.372
NC1(C(=O)N[C@@H](CCO)c2ccc(Cl)cc2)CCN(c2ncnc3[nH]ccc23)CC1 [Capivasertib] + CC(=O)c1c(C)c2cnc(Nc3ccc(N4CCNCC4)cn3)nc2n(C2CCCC2)c1=O [Palbociclib] (first compound max 10 µM, 7x7, partner max 10 µM)	0.665	0.81	0.612	0.296	0.807	0.414	0.512	0.632	0.582	0.324	0.581	0.377	0.611	0.689	0.507	0.76	0.854	0.549	0.166	0.585
NC1(C(=O)N[C@@H](CCO)c2ccc(Cl)cc2)CCN(c2ncnc3[nH]ccc23)CC1 [Capivasertib] + CC(C)n1c(=O)n(C)c2cnc3cc(F)c(-c4ccc(OCCCN5CCCCC5)nc4)cc3c21 [AZD1390] (first compound max 10 µM, 7x7, partner max 0.3 µM)	0.314	0.733	0.322	0.28	0.596	0.258	0.432	0.508	0.447	0.163	0.161	0.43	0.368	0.736	0.195	0.674	0.662	0.528	0.13	0.578
NC1(C(=O)N[C@@H](CCO)c2ccc(Cl)cc2)CCN(c2ncnc3[nH]ccc23)CC1 [Capivasertib] + CCN(CCO)CCCOc1ccc2c(Nc3cc(CC(=O)Nc4cccc(F)c4)[nH]n3)ncnc2c1 [AZD2811] (first compound max 10 µM, 7x7, partner max 1 µM)	0.324	0.765	0.395	0.388	0.811	0.595	0.488	0.629	0.707	0.249	1	0.332	0.423	0.613	0.323	0.73	0.766	0.588	0.244	0.648
NC1(C(=O)N[C@@H](CCO)c2ccc(Cl)cc2)CCN(c2ncnc3[nH]ccc23)CC1 [Capivasertib] + COc1nnc2ccc(N3CCC(c4ccc(OCCN5CCN(C)C(=O)[C@H]5C)cc4)CC3)nn12 [AZD5153] (first compound max 10 µM, 7x7, partner max 1 µM)	0.645	0.813	0.829	0.636	0.787	0.837	0.351	0.664	0.874	0.522	0.857	0.639	0.962	0.762	0.562	0.772	0.865	0.813	0.253	0.671
NC1(C(=O)N[C@@H](CCO)c2ccc(Cl)cc2)CCN(c2ncnc3[nH]ccc23)CC1 [Capivasertib] + C[C@@H]1COCCN1C2=NC(=NC(=C2)C3(CC3)[S@](=N)(=O)C)C4=C5C=CNC5=NC=C4 [AZD6738] (first compound max 10 µM, 7x7, partner max 10 µM)	0.524	0.771	0.601	0.67	0.811	0.87	0.526	0.749	0.701	0.645	0.99	0.59	0.787	0.635	0.618	0.781	0.892	0.533	0.778	0.714
NC1(C(=O)N[C@@H](CCO)c2ccc(Cl)cc2)CCN(c2ncnc3[nH]ccc23)CC1 [Capivasertib] + Cn1cnc2c(F)c(Nc3ccc(Br)cc3Cl)c(C(=O)NOCCO)cc21 [Selumetinib] (first compound max 10 µM, 7x7, partner max 10 µM)	0.434	0.809	0.963	0.249	0.656	0.24	0.797	0.601	0.721	0.464	0.168	0.484	0.644	0.28	0.495	0.755	0.793	0.703	0.462	0.685
Cc1nc(Nc2ncc(C(=O)Nc3c(C)cccc3Cl)s2)cc(N2CCN(CCO)CC2)n1 [Dasatinib] + CC(=O)Nc1cccc(-n2c(=O)n(C3CC3)c(=O)c3c(Nc4ccc(I)cc4F)n(C)c(=O)c(C)c32)c1 [Trametinib] (first compound max 2 µM, 7x7, partner max 1 µM)	1	0.68	0.997	0	0.13	0.0371	0.684	0.494	0.804	0.868	0.19	0.724	0.368	0.65	0.707	0.764	0.87	0.578	0.492	0.384
COc1cc2ncnc(Nc3ccc(F)c(Cl)c3)c2cc1OCCCN1CCOCC1 [Gefitinib] + CC(C)n1c(=O)n(C)c2cnc3cc(F)c(-c4ccc(OCCCN5CCCCC5)nc4)cc3c21 [AZD1390] (first compound max 10 µM, 7x7, partner max 0.3 µM)	0.439	0.244	0.0862	0.117	0.229	0.254	0.201	0.387	0.555	0.14	0.123	0.442	0.0734	0.136	0.162	0.845	0.0802	0.0654	0.296	0.0691
CS(=O)(=O)CCNCc1ccc(-c2ccc3ncnc(Nc4ccc(OCc5cccc(F)c5)c(Cl)c4)c3c2)o1 [Lapatinib] + C[C@@H](Oc1cc(-c2cnn(C3CCNCC3)c2)cnc1N)c1c(Cl)ccc(F)c1Cl [Crizotinib] (first compound max 10 µM, 7x7, partner max 10 µM)	0.905	0.652	1	0.285	0.951	0.91	0.576	0.898	0.998	0.579	0.976	0.51	0.511	0.565	0.786	0.978	0.975	0.675	0.622	0.613
CC(=O)c1c(C)c2cnc(Nc3ccc(N4CCNCC4)cn3)nc2n(C2CCCC2)c1=O [Palbociclib] + CC1(C)CCC(CN2CCN(c3ccc(C(=O)NS(=O)(=O)c4ccc(NCC5CCOCC5)c([N+](=O)[O-])c4)c(Oc4cnc5[nH]ccc5c4)c3)CC2)=C(c2ccc(Cl)cc2)C1 [Venetoclax] (first compound max 10 µM, 7x7, partner max 1 µM)	0.625	0.0933	0.223	0.0985	0.656	0.599	0.284	0.611	0.245	0.187	0.7	0.203	0.172	0.191	0.284	0.417	0.431	0.194	0.142	0.29
CC(=O)c1c(C)c2cnc(Nc3ccc(N4CCNCC4)cn3)nc2n(C2CCCC2)c1=O [Palbociclib] + Cc1c2c(nn1C)CSCc1cc(n(C)n1)CSc1cc(c3ccccc3c1)OCCCc1c(C(=O)O)n(C)c3c-2c(Cl)ccc13 [AZD5991] (first compound max 10 µM, 7x7, partner max 1 µM)	0.595	0.916	0.36	0.488	0.899	0.772	0.502	0.654	0.696	0.266	0.902	0.181	0.887	0.576	0.434	0.417	0.732	0.142	0.355	0.29
CC(=O)c1c(C)c2cnc(Nc3ccc(N4CCNCC4)cn3)nc2n(C2CCCC2)c1=O [Palbociclib] + Cn1cnc2c(F)c(Nc3ccc(Br)cc3Cl)c(C(=O)NOCCO)cc21 [Selumetinib] (first compound max 10 µM, 7x7, partner max 10 µM)	0.705	0.361	0.944	0.113	0.58	0.45	0.414	0.59	0.391	0.385	0.612	0.31	0.31	0.331	0.565	0.498	0.546	0.598	0.436	0.326
